Read-outs that look alike come from different tables or passages of the source.
How the values were obtained:
[1] = test system: A498; assay: in vitro anti-cancer screen, Sulforhodamine B method; type: cell-based, human; details: RENAL: A498, 48 h incubation, read-out: GROWTH INHIBITION (GI 50)
Protocol: (§1) Each test compound was screened against a battery of cell lines representing eight different types of cancers. In a typical procedure, 1×10^4 cells were seeded into each well of 96 well plate in 100 μL volume of RPMI 1640 medium containing antibiotics and 10% FCS.
(§2) The plates were incubated at 37° C. in presence of CO2. After 24 h, test compounds were evaluated at five 10 fold dilutions ranging from 100 to 0.01 μM. To each test well 100 μL of test compound solution was added and medium with vehicle was added to control wells and the plates were further incubated. After 48 h of incubation, plates were terminated by Sulforhodamine B method.
(§3) The optical density which is proportional to protein mass, is then-read by automated spectrophotometric plate reader at a wavelength of 515 nm.

[2] = test system: DU145; assay: as above; type: cell-based, human; details: PROSTATE: DU145, 48 h incubation, read-out: GROWTH INHIBITION (GI 50)
Protocol: as §1, §2, §3

[3] = test system: H522; assay: as above; type: cell-based, human; details: LUNG: H522, 48 h incubation, read-out: GROWTH INHIBITION (GI 50)
Protocol: as §1, §2, §3

[4] = test system: M14; assay: as above; type: cell-based, human; details: MELANOMA: M14; 48 h incubation; read-out: GROWTH INHIBITION (GI 50)
Protocol: as §1, §2, §3

[5] = test system: MCF-7/ADR; assay: as above; type: cell-based, human; details: BREAST: MCF-7/ADR, 48 h incubation, read-out: GROWTH INHIBITION (GI 50)
Protocol: as §1, §2, §3

[6] = test system: SKOV-3; assay: as above; type: cell-based, human; details: OVARIAN: SKOV-3, 48 h incubation, read-out: GROWTH INHIBITION (GI 50)
Protocol: as §1, §2, §3

[7] = test system: SW-620; assay: as above; type: cell-based, human; details: COLON: SW-620, 48 h incubation, read-out: GROWTH INHIBITION (GI 50)
Protocol: as §1, §2, §3

[8] = test system: U251; assay: as above; type: cell-based, human; details: CNS: U251, 48 h incubation, read-out: GROWTH INHIBITION (GI 50)
Protocol: as §1, §2, §3

[9] = test system: Human lymphocytes; assay: Lymphocyte proliferation, tritiated thymidine incorporation; type: cell-based; details: Concentration 1 μM; human lymphocytes with Phytohemagglutitin A
Protocol: Human lymphocytes were isolated from whole blood by using Ficoll Hypaque Plus (Amersham). On day one, 1 million lymphocytes were seeded into each well of 96 well plate in 100 μL volume of RPMI 1640 medium containing 10% FCS and Phytohemagglutitin A at 1 μg/well concentration. Plates were incubated at 37° C. in CO2 incubator for 24 h. Test compounds at various concentrations were added to test wells and only medium with vehicle was added to control wells. After 48 h of incubation […] of tritiated thymidine was added to each well. After 24 h of thymidine addition the cells were harvested and the incorporated radioactivity was determined. Stimulation Index (SI) was calculated using the formula, [formula]
A^T=Average CPM of treated wells,
A^C=Average CPM of control wells.

[10] = test system: HT29; assay: in vitro anti-cancer screen, Sulforhodamine B method; type: cell-based, human; details: COLON: HT29, 48 h incubation, read-out: GROWTH INHIBITION (GI 50)
Protocol: as §1, §2, §3

[11] = test system: MCF7; assay: as above; type: cell-based, human; details: BREAST: MCF7, 48 h incubation, read-out: GROWTH INHIBITION (GI 50)
Protocol: as §1, §2, §3

[12] = test system: PA1; assay: as above; type: cell-based, human; details: OVARIAN: PA1, 48 h incubation, read-out: GROWTH INHIBITION (GI 50)
Protocol: as §1, §2, §3

[13] = test system: UACC62; assay: as above; type: cell-based, human; details: MELANOMA: UACC62, 48 h incubation, read-out: GROWTH INHIBITION (GI 50)
Protocol: as §1, §2, §3

[14] = test system: PC-3; assay: as above; type: cell-based; details: Homo sapiens; PROSTATE: PC-3; 48 h incubation; read-out: GROWTH INHIBITION (GI 50)
Protocol: as §1, §2, §3

[15] = test system: HIV-1/MN; assay: Anti HIV activity, P24 antigen in infected PM-1 cells; type: cell-based; details: Concentration 1 μM; PM-1 cells infected with HIV-1/MN, 96 h; P24 antigen corrected by MTT
Protocol: Human CD4+T cell line PM-1 used in the assay was cultured in RPMI-1640 medium containing 10% Fetal bovine serum, 2 g/L sodium bicarbonate, 100,000 units/L Penicillin-G and 100 mg/L streptomycin. Healthy PM-1 cells were plated on the first day in a 96 well plate at […]. After 24 h HIV-1/MN was added to the culture and incubated for 2 h for infection. Cells were washed twice with PBS to remove the virus in the culture. Different concentrations of DRF compounds ranging from 10^−4 to 10^−8M were added to the culture and incubated for 96 h. The viability of cells was then assessed by standard MTT assay and the viral antigen P24 levels were estimated by ELSA method. Based on the MTT assay values the P 24 antigen values were corrected. All the samples were tested in triplicates and the average was used for calculations. AZT was used as standard compound for comparision.

[16] = test system: ACHN; assay: in vitro anti-cancer screen, Sulforhodamine B method; type: cell-based; details: Homo sapiens; RENAL: ACHN; 48 h incubation; read-out: GROWTH INHIBITION (GI 50)
Protocol: as §1, §2, §3

[17] = test system: OVCAR; assay: as above; type: cell-based; details: Homo sapiens; OVARIAN: OVCAR; 48 h incubation; read-out: GROWTH INHIBITION (GI 50)
Protocol: as §1, §2, §3

[18] = test system: tumor cell lines; details: cited from earlier work

| GI50 ([2]; Homo sapiens, DU-145) [nM] | GI50 ([3]; Homo sapiens, NCI-H522) [nM] | GI50 ([10]; Homo sapiens, HT-29) [nM] | GI50 ([5]; Homo sapiens, NCI/ADR-RES) [nM] | GI50 ([11]; Homo sapiens) [nM] | GI50 ([12]; Homo sapiens, PA-1) [nM] | GI50 ([6]; Homo sapiens, SK-OV-3) [nM] | GI50 ([7]; Homo sapiens) [nM] | GI50 ([8]; Homo sapiens, U-251) [nM] | GI50 ([13]; Homo sapiens, UACC-62) [nM] | GI50 [14] [nM] | melting point [°C] | Molecule | GI50 [1] [nM] | GI50 [3] [nM] | GI50 [5] [nM] | GI50 [6] [nM] | GI50 [7] [nM] | GI50 [8] [nM] | Stimulation Index (SI) [9] | also measured |
| --- | --- | --- | --- | --- | --- | --- | --- | --- | --- | --- | --- | --- | --- | --- | --- | --- | --- | --- | --- | --- |
| – | – | – | – | – | – | – | – | – | – | – | – | C=C1CCC2C(C)(COC(C)=O)C(OC(C)=O)CCC2(C)C1CC(Sc1ccccc1)C1=CCOC1=O (stereo not shown) [Example 58, 3,19-Diacetyl-14-deoxy-12-phenylthio andrographolide] | 200 | 7000 | 6500 | 6000 | 5000 | 4000 | 99 | GI50 [2]: 7500 nM; GI50 [4]: 4000 nM |
| 15000 | 5000 | 10000 | 4000 | 4000 | 3000 | 7000 | 3500 | 2000 | 6000 | 3000 | 155 | C=C1CCC2[C@](C)(CO)[C@H](O)CC[C@]2(C)[C@H]1CC(C1=CCOC1=O)n1cc(F)c(=O)[nH]c1=O (stereo partly shown) [Example 51, 14-Deoxy-12-[N^1-(5-fluorouracil)]andrographolide] | – | – | – | – | – | – | – | GI50 ([1]; Homo sapiens): 2500 nM |
| – | – | – | – | – | – | – | – | – | – | – | – | 3,19-Diacetyl-14-deoxy-12-[N^1-(5-iodouracil)]andrographolide [Example 48] | 3000 | 4000 | 2000 | 3000 | 4000 | 2000 | 130 | GI50 [10]: 4000 nM; GI50 [11]: 2000 nM; GI50 [12]: 2000 nM; GI50 [13]: 3000 nM |
| – | – | – | – | – | – | – | – | – | – | – | – | Cc1cn([C@H]2C[C@H](N=[N+]=[N-])[C@@H](CO)O2)c(=O)[nH]c1=O [AZT, reference compound] | – | – | – | – | – | – | – | Percentage Inhibition [15]: 72.47 |
| – | 3000 | 3000 | 1000 | 3000 | 2000 | 2000 | 2000 | 2000 | 2000 | – | 149.6 | C=C1CCC2[C@]3(C)COC(C)(c4ccccc4)OC3CC[C@]2(C)[C@H]1CC(NCc1ccccc1)C1=CCOC1=O (stereo partly shown) [Example 21, 12-(N-Benzylamino)-14-deoxy-3,19-O-(1-phenylethylidene)andrographolide] | – | – | – | – | – | – | 16 | GI50 ([1]; Homo sapiens): 2000 nM |
| 12000 | 20000 | 3000 | 2000 | 3000 | 1400 | 4000 | 3000 | 3000 | 3000 | 2000 | 171.6 to 171.9 | C=C1CCC2[C@]3(C)COC(C)(c4ccccc4)OC3CC[C@]2(C)[C@H]1CC(NC(Cc1ccccc1)C(=O)OC)C1=CCOC1=O (stereo partly shown) [Example 22, 14-Deoxy-12-(O-methylphenylalanino)-3,19-O-(1-phenylethylidene)andrographolide] | – | – | – | – | – | – | – | GI50 [16]: 14000 nM; GI50 [17]: 1400 nM |
| – | – | – | – | – | – | – | – | – | – | – | – | C=C1CC[C@@H]2[C@](C)(CO[C@@H]3O[C@H](CO)[C@@H](O)[C@H](O)[C@H]3O)CCC[C@@]2(C)[C@@H]1CCC1=CCOC1=O [neoandrographolide] | – | – | – | – | – | – | – | cytotoxic activity [18]: no cytotoxic activity |
| – | – | – | – | – | – | – | – | – | – | – | – | C=C1CCC2C(C)(COC(C)=O)C(OC(C)=O)CCC2(C)C1CC(NCc1ccc(OC)cc1)C1=CCOC1=O (stereo not shown) [Example 3, 3,19-Diacetyl-14-deoxy-12-(N-4-methoxybenzylamino)andrographolide] | 180 | 180 | 5000 | 150 | 3500 | 8000 | – | GI50 [2]: 8000 nM; GI50 [4]: 5500 nM |
| 11000 | 15000 | 3000 | 2000 | 4000 | 1000 | 4000 | 2000 | 2000 | 2000 | 2000 | 141 to 143 | C=C1CCC2[C@]3(C)COC(C)(c4ccccc4)O[C@@H]3CC[C@]2(C)[C@H]1CC(C1=CCOC1=O)N1CCCC1C(=O)OC (stereo partly shown) [Example 23, 14-Deoxy-12-(O-methylprolino)-3,19-O-(1-phenylethylidene)andrographolide] | – | – | – | – | – | – | – | GI50 [16]: 13000 nM; GI50 [17]: 1000 nM |
| – | – | – | – | – | – | – | – | – | – | – | – | CC(=O)OCC1(C)C(OC(C)=O)CCC2(C)C(CC(Sc3ccccc3)C3=CCOC3=O)C3(CCC12)CO3 (stereo not shown) [Example 70, 3,19-Diacetyl-14-deoxy-8,17-epoxy-12-phenylthio andrographolide] | 4000 | 7000 | 8000 | 4000 | 4000 | 7000 | – | GI50 [2]: 2000 nM; GI50 [4]: 3000 nM |
| – | – | – | – | – | – | – | – | – | – | – | – | C=C1CCC2[C@](C)(CC[C@@H](O)[C@@]2(C)CO)C1/C=C/C1=CCOC1=O (stereo partly shown) [14-deoxy-11,12-didehydroandrographolide] | – | – | – | – | – | – | – | cytotoxic activity [18]: no cytotoxic activity |
| 10000 | 6000 | 10000 | 2500 | 3000 | 3000 | 4000 | 2500 | 70 | 3500 | 2500 | 192 | C=C1CCC2[C@](C)(CO)[C@H](O)CC[C@]2(C)[C@H]1CC(NCc1ccccc1)C1=CCOC1=O (stereo partly shown) [Example 18, 12-(N-Benzylamino)-14-deoxy andrographolide] | – | – | – | – | – | – | 64 | GI50 ([1]; Homo sapiens): 2500 nM |

— patent US6576662B2, “Compounds having anticancer activity : process for their preparation and pharmaceutical compositions containing them” (Dr. Reddy's Laboratories Limited, priority 2000, dated 2003)
